Test results from article PMC2664092 (Biochemistry, 2008).

Target: T1, LpxL (Escherichia coli, UniProt P0ACV0)
T1 sequence (P0ACV0 1-306): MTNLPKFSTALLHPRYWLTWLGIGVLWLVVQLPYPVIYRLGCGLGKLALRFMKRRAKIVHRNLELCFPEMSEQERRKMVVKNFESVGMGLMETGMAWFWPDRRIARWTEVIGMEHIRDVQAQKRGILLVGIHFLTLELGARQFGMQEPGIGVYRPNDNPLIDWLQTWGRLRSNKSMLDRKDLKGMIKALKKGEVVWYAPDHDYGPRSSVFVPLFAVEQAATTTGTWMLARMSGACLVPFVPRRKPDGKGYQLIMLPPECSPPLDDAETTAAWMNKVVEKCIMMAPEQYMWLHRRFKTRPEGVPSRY
Experiment: […] TLC acyltransferase assay, PhosphorImager
Type: biochemical
Details: read-out: apparent KM; 90 µM lauroyl-ACP (saturating); 0.1% Triton X-100, 0.1 mg/mL BSA, 5 mM MgCl2, 50 mM NaCl, 50 mM HEPES pH 7.5; 30 °C (standard assay); labelled compound

- Km: 15 ± 3 µM
SMILES: CCCCCCCCCCC[C@@H](O)CC(=O)N[C@H]1[C@H](OC[C@H]2O[C@H](OP(=O)(O)O)[C@H](NC(=O)C[C@H](O)CCCCCCCCCCC)[C@@H](OC(=O)C[C@H](O)CCCCCCCCCCC)[C@@H]2O)O[C@H](CO[C@]2(C(=O)O)C[C@@H](O[C@]3(C(=O)O)C[C@@H](O)[C@@H](O)[C@@H]([C@H](O)CO)O3)[C@@H](O)[C@@H]([C@H](O)CO)O2)[C@@H](OP(=O)(O)O)[C@@H]1OC(=O)C[C@H](O)CCCCCCCCCCC [Kdo2-lipid IVA]
